Source: patent publication US7304052B2, “Substituted homopiperidinyl benzimidazole analogues as fundic relaxants” (Janssen Pharmaceuitca N.V., priority 1999, dated 2007)

Tested on: gastric tone (fundus of the stomach)
Assay: Gastric tone measured by an electronic barostat in conscious dogs
Type: in vivo, dog
Conditions: mean maximal change in intragastric volume on relaxation of the fundus, 1 hour after S.C. administration, 0.63 mg/kg, conscious female beagle dogs, barostat at 2 mmHg
Description: Gastric tone cannot be measured by manometric methods. Therefore an electronic barostat was used. This allows the study of the physiological pattern and regulation of gastric tone in conscious dogs and the influence of test-compounds on this tone.
The barostat consists of an air injection system which is connected by a double-lumen 14-French polyvinyl tube to an ultrathin flaccid polyethylene bag (maximal volume: ±700 ml). Variations in gastric tone were measured by recording changes in the volume of air within an intragastric bag, maintained at a constant pressure. The barostat maintains a constant pressure (preselected) within a flaccid air-filled bag introduced into the stomach, changing the volume of air within the bag by an electronic feedback system.
Thus, the barostat measures gastric motor activity (contraction or relaxation) as changes in intragastric volume (decrease or increase resp.) at a constant intragastric pressure. The barostat consists of a strain gauge linked by an electronic relay to an air injection-aspiration system Both the strain gauge and the injection system are connected by means of double-lumen polyvinyl tube to an ultrathin polyethylene bag. A dial in the barostat allows selection of the pressure level to be maintained within the intragastric bag.
Female beagle dogs, weighing 7-17 kg, were trained to stand quietly in Pavlov frames. They were implanted with a gastric cannula under general anaesthesia and aseptic precautions. After a median laparotomy, an incision was made through the gastric wall in longitudinal direction between the greater and the lesser curve, 2 cm above the nerves of Latarjet. The cannula was secured to the gastric wall by means of a double purse string suture and brought out via a stub wound at the left quadrant of the hypochondrium Dogs were allowed a recovery period of two weeks.
At the beginning of the experiment, the cannula was opened in order to remove any gastric juice or food remnants. If necessary, the stomach was cleansed with 40 to 50 ml lukewarm water. […]

SMILES | Maximum change in volume (mean) [mL]
c1ccc(CN2CCCC(c3nc4ncccc4[nH]3)CC2)cc1 (single isomer, unassigned; (-)) [Compound 80, (−)-2-[hexahydro-1-(phenylmethyl)-1H-azepin-4-yl]-1H-imidazo[4,5-b]pyridine] | 55
c1ccc(CN2CCCC(c3nc4ncccc4[nH]3)CC2)cc1 (single isomer, unassigned; (+)) [Compound 81, (+)-2-[hexahydro-1-(phenylmethyl)-1H-azepin-4-yl]-1H-imidazo[4,5-b]pyridine] | 183
c1ccc(CN2CCCC(c3nc4ncccc4[nH]3)CC2)cc1 (racemic) [Compound 69, (±)-2-[hexahydro-1-(phenylmethyl)-1H-azepin-4-yl]-1H-imidazo[4,5-b]pyridine] | 87
